From patent US20260209211A1, “CYCLIN K DEGRADER AND USE THEREOF” (ADLAI NORTYE BIOPHARMA CO., LTD., priority 2022, published 2026)
Where two headings read alike, the source gives them in different places.

What was measured:
[1] = test system: HGC27 (Human Gastric Cancer Cell); assay: Bioactivity assay for HGC27 cell growth inhibition (CellTiter-Glo); format: cell-based; conditions: read-out: HGC27 CTG IC50
Protocol: This detection method is used to evaluate the biological activity of the compounds of the present disclosure at the cellular level.
(§1) HGC27 cells (purchased from the Chinese Academy of Sciences) were harvested, resuspended in complete medium and adjusted to a cell density of 0.2×10^6 cells per ml. The cell suspension was added to a 96-well plate at a volume of 100 μL per well and cultured overnight in a 37° C., 5% CO2 incubator. Prepare the test compound and add it to the cell plate so that the highest concentration of the compound is 10 μM. Set 8 concentration points according to 3-fold dilution. At the same time, 100% inhibition control wells were set, that is, wells with no cells but only an equal volume of complete culture medium; and 0% inhibition control wells, that is, wells with cells added with 0.1% DMSO. The cell plate was cultured at 37° C. and 5% CO2 for 24 hours. Remove the cell culture plate and add 25 μl CellTiter-Glo® Luminescent Cell Viability Reagent (promega cat #G7573) to each well. Incubate in the dark for 10 minutes and then transfer 100 μL to a white plate and use Molecular Devices SpectraMax i3 to detect chemiluminescence. The inhibition rate was calculated using the following formula for data processing: compound inhibition rate=(0% inhibition control well signal−compound treatment well signal)/(0% inhibition control well signal−100% inhibition control well signal)*100%. The calculated data were fitted with four parameters using GraphPad Prism software and the corresponding IC50 was calculated.

[2] = test system: NCI-N87 (Human Gastric Cancer Cell); assay: Bioactivity detection of NCI-N87 cell growth inhibition (CellTiter-Glo); format: cell-based; conditions: NCI-N87 cells, 72 hours, highest concentration 10 μM, read-out: N87 CTG IC50
Protocol: This detection method is used to evaluate the biological activity of the compounds described in this disclosure at the cellular level.
as §1, with “NCI-N87” for “HGC27”, “0.1×10^6” for “0.2×10^6”, “72” for “24”, “CellTiter-Glo” for “CellTiter-Glo®”, “signal)[…].” for “signal)*100%.”

[3] = HGC-27, HGC27 cells, 24 hours, CellTiter-Glo, highest concentration 10 μM

| IC50 [1, 3] [nM] | IC50 [2] [nM] | Structure (SMILES) | IC50 ([1]; HGC-27, 24 h) [nM] |
| --- | --- | --- | --- |
| 139 | 26 | FC(F)(F)c1cnc(NCc2ccc3c(c2)[nH]c2cccnc23)nc1OC1COC1 [Compound 2] |  |
| 41 | 13 | C[C@@H](O)[C@@H](CO)Nc1nc(NCc2ccc3c(c2)[nH]c2c(CO)ccnc23)ncc1C(F)(F)F [Compound 13] |  |
| 32 | 10 | CC[C@@H](Nc1nc(NCc2ccc3c(c2)[nH]c2c(CN)ccnc23)ncc1C(F)(F)F)C(N)=O [Compound 33] |  |
| 7 | 1.7 | C[C@@H](O)[C@@H](C)Nc1nc(NCc2ccc3c(c2)[nH]c2c(CN)ccnc23)ncc1C(F)(F)F [Compound 34] |  |
| 54 | 9 | OCc1ccnc2c3ccc(CNc4ncc(C(F)(F)F)c(OC5COC5)n4)cc3nn12 [Compound 39] |  |
| 121 | 7 | CC[C@@H](Nc1nc(NCc2ccc3c(c2)nn2c(CO)ccnc32)ncc1C(F)(F)F)C(N)=O [Compound 40] |  |
| 20 | 13 | NCc1ccnc2c1[nH]c1cc(CNc3ncc(C(F)(F)F)c(N[C@@H](C(N)=O)C4CC4)n3)ccc12 [Compound 42] |  |
| 53 | 20 | CC(C)[C@@H](Nc1nc(NCc2ccc3c(c2)[nH]c2c(CN)ccnc23)ncc1C(F)(F)F)C(N)=O [Compound 48] |  |
| 39 | 32 | NCc1ccnc2c1[nH]c1cc(CNc3ncc(C(F)(F)F)c(N[C@@H](C(N)=O)C4CCCC4)n3)ccc12 [Compound 52] |  |
| 29 | 48 | NCc1ccnc2c1[nH]c1cc(CNc3ncc(C(F)(F)F)c(N[C@H](CC4CC4)C(N)=O)n3)ccc12 [Compound 53] |  |
| 32 | 32 | CCC[C@@H](Nc1nc(NCc2ccc3c(c2)[nH]c2c(CN)ccnc23)ncc1C(F)(F)F)C(N)=O [Compound 54] |  |
| 25 | 30 | NCc1ccnc2c1[nH]c1cc(CNc3ncc(C(F)(F)F)c(N[C@@H](C(N)=O)C4CCC4)n3)ccc12 [Compound 56] |  |
| 14 | 11 | CO[C@@H](C)[C@@H](Nc1nc(NCc2ccc3c(c2)[nH]c2c(CN)ccnc23)ncc1C(F)(F)F)C(N)=O [Compound 57] |  |
| 114 | 58 | CC(C)(O)[C@@H](Nc1nc(NCc2ccc3c(c2)[nH]c2c(CN)ccnc23)ncc1C(F)(F)F)C(N)=O [Compound 58] |  |
| 13 | 1.8 | C[C@@H](O)[C@@H](C)Nc1nc(NCc2ccc3c(c2)nn2c(CO)ccnc32)ncc1C(F)(F)F [Compound 60] |  |
| 70 | 48 | CC[C@@H](Nc1nc(NCc2ccc3c(c2)nn2c(CN)ccnc32)ncc1C(F)(F)F)C(N)=O [Compound 62] |  |
| 20 | 15 | C[C@@H](O)[C@@H](C)Nc1nc(NCc2ccc3c(c2)nn2c(CN)ccnc32)ncc1C(F)(F)F [Compound 63] |  |
| 14 | 2.5 | CO[C@@H](C)[C@@H](Nc1nc(NCc2ccc3c(c2)[nH]c2c(C#N)ccnc23)ncc1C(F)(F)F)C(N)=O [Compound 67] |  |
| 36 | 1 | Cc1ccnc2c1[nH]c1cc(CNc3ncc(C(F)(F)F)c(N[C@H](C)[C@@H](C)O)n3)ccc12 [Compound 68] |  |
| 112 | 13 | CC[C@@H](Nc1nc(NCc2ccc3c(c2)[nH]c2c(C)ccnc23)ncc1C(F)(F)F)C(N)=O [Compound 70] |  |
| 68 | 8.6 | CO[C@@H](C)[C@H](C#N)Nc1nc(NCc2ccc3c(c2)[nH]c2c(CO)ccnc23)ncc1C(F)(F)F [Compound 71] |  |
|  | 117 | CC[C@@H](Nc1nc(NCc2ccc3c(c2)[nH]c2c(CO)ccnc23)ncc1C(F)(F)F)C(=O)NC [Compound 99] |  |
|  | 112 | CC[C@@H](Nc1nc(NCc2ccc3c(c2)[nH]c2c(CO)ccnc23)ncc1C(F)(F)F)C(=O)N(C)C [Compound 100] |  |

| Structure (SMILES) | IC50 [1, 3] [nM] | IC50 [2] [nM] | IC50 ([1]; HGC-27, 24 h) [nM] |
| --- | --- | --- | --- |
| CC(C)(C)[C@@H](Nc1nc(NCc2ccc3c(c2)[nH]c2c(CN)ccnc23)ncc1C(F)(F)F)C(N)=O [Compound 55] |  | 19 | 26 |
